Holding throughout (format): cell-based, human
In one test the test system is HCT116 cells. The test is described as follows: siRNA sensitization of Enzastaurin drug response, CellTiter Glo cell viability. To be noted: for pIC50: Homo sapiens, HCT-116, 72 h, 72 h Enzastaurin. As for the experimental part:
HCT116 cells are obtained from American Tissue Culture Collection, ATCC (Rockville, Md., USA) and cultured in McCoy's 5A medium supplemented with 2 mM L-glutamine and 10% fetal bovine serum (FBS), in a humidified 37° C. incubator with 5% CO2. Plates (384-well) are pre-printed using 2 siRNAs per target in the Druggable Genome v2 Library (Qiagen) such that each well contains 13 nM of an individual siRNA duplex. High throughput reverse transfections are performed by adding transfection agent Lipofectamine 2000 (Invitrogen) and 1500 cells diluted in McCoy's 5A medium supplemented with 2 mM L-glutamine and 2% FBS into each well following a standard reverse transfection protocol. Twenty-four hours post transfection, each assay plate is treated with or without 5 concentrations (0-10 μM) of Enzastaurin in 1% DMSO. Seventy-two hours later, cell viability is measured using chemiluminescence based CellTiter Glo (Promega) assay readout, according to manufacturer's recommendations. UBB siRNA (Qiagen) is the positive cell killing control and All Star Non-silencing (NS-AS) or green fluorescent protein (GFP) is the negative control. Raw signal values are normalized to untreated control wells to compare across plates. These are fit to a 4-parameter logistical model to determine IC50 values. A ‘shift’ in IC50 with respect to the negative control (described above) is calculated as: (IC50 target−IC50 control) divided by IC50 control.

A further test has as its system RKO (HDAC 2+/−). The test is described as follows: Enzastaurin drug dose response, CellTiter Glo cell viability. To be noted: RKO cells. As for the experimental part: (§1) The human colon cancer cell line, HCT116 (HDAC 2 w.t), and RKO (HDAC 2+/−), a cell line containing a nonsense mutation resulting in null protein expression of HDAC2 relative to HCT116, are obtained from American Tissue Culture Collection, ATCC (Rockville, Md., USA) and cultured in the ATCC recommended growth medium supplemented with 2 mM L-glutamine and 10% FBS, in a humidified 37° C. incubator with 5% CO2. Drug dose response experiments are performed by seeding 1000-2000 cells diluted in McCoy's 5A medium containing 25 mM N-2-hydroxyethylpiperazine-N′-2-ethanesulfonic acid (HEPES), 2 mM L-glutamine and 2% fetal bovine serum (FBS) followed by treatment with or without serial dilutions of Enzastaurin (0-100 μM) in 1% DMSO. Seventy-two or ninety-six hours later, cell viability is measured using chemiluminescence based CellTiter Glo (Promega) assay readout, according to manufacturer's recommendations. Raw signal values are normalized to untreated control and analyzed by non-linear curve fitting in GraphPad Prism (La Jolla, Calif., USA).

The test system of the next test is HCT116 (HDAC 2 w.t). Described as above. To be noted: HCT116 cells. On the procedure:
as §1

pIC50: −log10 of the molar value. Bounds are passed on as bounds.

By pIC50 is commonly meant the negative decadic logarithm of the IC50, by convention in mol/L. Take `Cn1cc(C2=C(c3cn(C4CCN(Cc5ccccn5)CC4)c4ccccc34)C(=O)NC2=O)c2ccccc21` [Enzastaurin, 3-(1-methyl-1H-indol-3-yl)-4-[1-[1-(pyridin-2-ylmethyl)piperidin-4-yl]-1H-indol-3-yl]-1H-pyrrole-2,5-dione]: the “shift in IC50 values relative to negative control” value in the test on HCT116 cells (HCT116, three siRNAs that target HDAC2) is listed as greater than 2 fold. The “cell killing in high content images” value in the test with HCT116 cells (HCT116 treated with Enzastaurin and HDAC2 siRNA relative to negative controls and either condition alone, data not shown) was “higher degree of cell killing”. The pIC50 in the test with HCT116 cells (HCT116, HDAC2 siRNA: None (negative control)) was 5.43; in the test with HCT116 cells (HCT116 transfected with HDAC2 siRNA SEQ ID NO: 1), 5.87; in the test with HCT116 cells (HCT116 transfected with HDAC2 siRNA SEQ ID NO: 2) it was 5.77; with HCT116 cells (HCT116 transfected with HDAC2 siRNA SEQ ID NO: 3), 5.70; in the test on RKO (HDAC 2+/−) (Homo sapiens, 72 or 96 h), 5.45; in the test on HCT116 (HDAC 2 w.t) (Homo sapiens, HCT-116, 72 or 96 h), 5.08. Further, the maximum killing effect with RKO (HDAC 2+/−) is 95-100%; in the test with HCT116 (HDAC 2 w.t), 50-60%.

The values are drawn from patent publication US20110288032A1, “ENZASTAURIN FOR THE TREATMENT OF CANCER” (ELI LILLY AND COMPANY, priority 2008, published 2011).
